This is an account of results in PubChem BioAssay (NCI).

Structures are written as SMILES. Values joined by “and” are separate entries in the source; they are usually repeats but may differ in a detail not shown here. Equal entries are not always repeated.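 Interpolation was linear, between the two tested concentrations surrounding the appropriate level; five concentrations were tested over 48 hours in 96-well plates. At the GI50, growth is halved. Definition used: TGI = concentration required for complete inhibition of growth.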

This experiment concerns MDA-MB-468 breast. Nature of the experiment: growth of human tumour cells (NCI), 48 h.
As for `C[C@]12CC[C@H]3[C@@H](CCC4=CC(=O)CC[C@@H]43)[C@@H]1CC[C@@H]2OC(=O)N(CCCl)N=O`, the GI50 was 512 nM and the TGI turned out to be 5700 nM.
The like results for `C[C@]12CC[C@H]3[C@@H](CC=C4C[C@@H](O)CC[C@@]43C)[C@@H]1CC[C@@H]2[C@](C)(O)CCc1cccnc1` were, in that order, 1910 nM and greater than 100000 nM.
The like results for `O=C(CCl)c1ccc([N+](=O)[O-])o1` were, in that order, 1060 nM and 2770 nM.
The like results for `CC[C@H](Nc1nc(N)nc(C)c1C#N)c1nc2cccc(CN(C)c3ncc(C(=O)NO)cn3)c2c(=O)n1-c1ccccc1` were, in that order, 367 nM and 10500 nM.
`CCN=C1C=CC(=C(c2ccc(N(C)C)cc2)c2ccc(N(C)C)cc2)c2ccccc21`: the GI50 is 47 nM and the TGI worked out at 346 nM.
The like results for `OCC1OC(n2ccc3c2ncn2ncnc32)C(O)C1O` (stereo not given) were, in that order, 279 nM and 3190 nM.
The like results for `CN(C)CCNC(=O)c1cccn2c(=O)c3cc4ccccc4cc3nc12` were, in that order, 299 nM and 1120 nM.
With `O=C(Nc1cccc(Cl)c1)Nc1ncc(CCNc2ncnc3ccsc23)s1`, the GI50 was 196 nM and 952 nM; the TGI is 8390 nM and > 10000 nM.
As for `O=C(CCN1CCCC1)Nc1ccc2c(NCc3ccc(F)cc3)c3ccccc3nc2c1`, the GI50 is 318 nM and the TGI came to 1400 nM.
The like results for `CCN(CC)CCOc1ccc(C(=C(C)c2ccc(Cl)cc2)c2ccc(OCCN(CC)CC)cc2)cc1` were, in that order, 556 nM and 1100 nM.
The like results for `O=c1cc(CNc2cc(F)cc(F)c2)c2ccc(I)cc2[nH]1` were, in that order, 409 nM and greater than 100000 nM.
The like results for `CN(C)c1ccc2nc3ccc(=[N+](C)C)cc-3oc2c1` were, in that order, 620 nM and 3580 nM.
As to `CCOC(=O)Cc1c[nH]c(=S)[nH]c1=O`, the GI50 was greater than 100000 nM and the TGI was greater than 100000 nM.
Consider `O=C1C(Cl)=C(N/N=c2/[nH][nH]/c(=N/NC3=C(Cl)C(=O)c4ccccc4C3=O)c3ccccc23)C(=O)c2ccccc21`, for which the GI50 was 14700 nM and the TGI was 32900 nM.
The like results for `CC(=O)/C(N=Nc1ccc2oc(=O)ccc2c1)=C(\C)O` were, in that order, 2740 nM and 12700 nM.
As to `COc1ccc([C@@H]2[C@@H](O)C(=O)N2c2cc(OC)c(OC)c(OC)c2)cc1F`, the GI50 is 26.9 nM and the TGI came out at 398 nM.
The like results for `Cc1cc(N2CCCCC2)nc(N(CCNc2ccnc3cc(Cl)ccc23)Cc2ccco2)n1` were, in that order, 1740 nM and 3870 nM.
With `C=C(C)[C@@H]1CC[C@]2(C(=O)NCCCN)CC[C@]3(C)[C@H](CC[C@@H]4[C@@]5(C)CC[C@H](O)C(C)(C)[C@@H]5CC[C@]43C)[C@@H]12`, the GI50 was 12600 nM and the TGI was 48500 nM.
Take `CNC(=O)c1cc(N2CCc3cc(NC(=O)Nc4ccc(N5CCN(C)CC5)c(C(F)(F)F)c4)ccc32)ccn1`: the GI50 was 3680 nM and the TGI worked out at 7950 nM.
As to `CC1=C2C(=C[C@@](C)(COC(=O)c3ccc(S(=O)(=O)F)cc3)[C@@H]2OC(=O)c2ccc(S(=O)(=O)F)cc2)C(=O)[C@](C)(O)C12CC2`, the GI50 is 187 nM and the TGI amounted to 465 nM.
As to `N#CSc1ncnc2nc[nH]c12`, the GI50 was 522 nM and the TGI was greater than 100000 nM.
The like results for `CCn1c(-c2nonc2N)nc2cncc(C(=O)N3CCNCC3)c21` were, in that order, greater than 25000 nM and greater than 25000 nM.
For `N=C(N)c1nn(C2OC(CO)C(O)C2O)c2nc[nH]c(=O)c12` (stereo not given), the GI50 was 372 nM and the TGI was 1690 nM.
The like results for `CCN(CC)c1ccc(/C=C/c2cc(C)c3ccccc3n2)cc1` were, in that order, 3060 nM and 9020 nM.
In the case of `CC12CCC=CC1CCC1C2CCC2(C)C(c3ccc(=O)oc3)CCC12O` (stereo not given), the GI50 was 313 nM and the TGI worked out at 1220 nM.
Take `CCCN(Cc1ccc(F)cc1)c1ccc(CO)c(Cl)c1`: the GI50 was 21.2 nM and the TGI is 62.5 nM.
The like results for `CC1=C(C)C(=O)C(Nc2cccc(C(F)(F)F)c2)=C(Cl)C1=O` were, in that order, 1240 nM and 2940 nM.
The like results for `c1ccc2nc(Cn3c[n+](Cc4ccc5ccccc5n4)c4ccccc43)ccc2c1` were, in that order, 645 nM and 5440 nM.
The like results for `NC(=O)[C@H]1CCN(c2ncnc(N)c2F)C[C@@H]1N1CCC[C@@H](Nc2cc(Cl)cc(C(F)(F)F)c2)C1=O` were, in that order, 11200 nM and 34400 nM.
`COc1cc2c(cc1OC)-c1ccc3cc4c(cc3c1N(CCN1CCCC1)C2)OCO4`: the GI50 was 653 nM and the TGI amounted to 2200 nM.
The like results for `CCCN1C(=O)/C(=c2\sc3n(c2=O)C2C(NN=3)N(CC)C(=O)N2CC)c2ccccc21` (stereo not given) were, in that order, 464 nM and 10400 nM.
The like results for `CC(C)(O)c1ccc(N2CCN(c3nnc(Cc4ccccc4)c4ccccc34)CC2)nc1` were, in that order, 2780 nM and 12800 nM.
The like results for `COc1ccc(-c2ccc(-c3ccc(C(=N)N)nc3)s2)cc1` were, in that order, 1630 nM and 3110 nM.
Turning to `COc1cc(Cn2cc3c(c2)-c2oncc2CC3)cc(OC)c1OC`, the GI50 was 14.7 nM and the TGI turned out to be 54.1 nM.
The like results for `N#Cc1ncc(/N=C/c2ccc(N(CCCl)CCCl)cc2)s1` were, in that order, 436 nM and 3650 nM.
The like results for `CC1=C(C(=O)OCc2ccccc2)C(c2ccc3c(c2)OCO3)n2c(nc3ccccc32)N1` (stereo not given) were, in that order, 247 nM and 39500 nM.
The like results for `COc1ccc(Cn2nc(-c3cc(OC)c(OC)c(OC)c3)c3c2CCc2cnoc2-3)cc1OC` were, in that order, 1940 nM and 8840 nM.
With `Fc1ccc(-c2nc3n(c2-c2ccncc2)CCS3)cc1`, the GI50 is 4630 nM and the TGI is greater than 25000 nM.
The like results for `COc1cc2cc(Oc3ccc(NC(=O)Nc4ccc(Cl)c(C(F)(F)F)c4)cc3)c(C)nc2cc1OCCN1CCCCC1` were, in that order, 1340 nM and 2850 nM.
The like results for `CCN1C(=O)N(CC)C2C1NN=c1s/c(=C3\C(=O)N(C(C)C)c4ccccc43)c(=O)n12` (stereo not given) were, in that order, 321 nM and 5580 nM.
`O=S(=O)(c1ccc(NC(=S)NCc2cccnc2)cc1)N1CCCCC1`: the GI50 is 9800 nM and the TGI came out at 95800 nM.
The like results for `COc1cc2nc(Cl)nc(Nc3cccc(C(=O)/C=C/c4ccccc4)c3)c2cc1OC` were, in that order, 3390 nM and greater than 100000 nM.
The like results for `COc1cccc(C2=C(c3cn(C)c4ccccc34)C(=O)NC2=O)c1` were, in that order, 5130 nM and greater than 25000 nM.
The like results for `CCc1ccc(NC(=O)Nc2c[nH]c3ccccc23)cc1` were, in that order, 18800 nM and greater than 56500 nM.
On to `CCCC(=O)NC(c1cccnc1)c1ccc2c(C)ccnc2c1O` (stereo not given), for which the GI50 is 1680 nM and the TGI was 6910 nM.
